Molecules are shown by their SMILES. Some results are limits rather than exact numbers.

For this assay, the target named is Cannabinoid receptor 2 (Homo sapiens, UniProt P34972). As to the kind of experiment: Displacement of [3H]-CP55940 from human CB2 receptor expressed in HEK293 cell membranes after 90 mins by liquid scintillation counting method. In general terms: Displacement assays read how much labelled ligand stays bound in the presence of the test substance.
Sequence of Cannabinoid receptor 2 (P34972 whole entry): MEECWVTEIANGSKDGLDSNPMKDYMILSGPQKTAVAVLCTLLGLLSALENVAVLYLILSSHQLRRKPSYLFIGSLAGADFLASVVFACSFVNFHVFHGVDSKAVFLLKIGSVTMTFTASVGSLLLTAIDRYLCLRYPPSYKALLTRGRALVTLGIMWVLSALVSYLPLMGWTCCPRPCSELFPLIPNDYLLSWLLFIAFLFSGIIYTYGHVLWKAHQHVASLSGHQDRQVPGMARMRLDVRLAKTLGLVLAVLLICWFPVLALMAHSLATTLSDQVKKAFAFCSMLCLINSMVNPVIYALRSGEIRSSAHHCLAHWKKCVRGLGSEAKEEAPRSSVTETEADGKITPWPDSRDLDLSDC
As to `CCCCCCC(C)(C)c1cc(O)c2c(c1)OC(C)(C)c1cnn(CC)c1-2`, the Ki (commonly the dissociation constant of the complex between target and ligand, obtained from inhibition or displacement) was above 40 µM.

In the case of `CCCCCCC(C)(C)c1cc(O)c2c(c1)OC(C)(C)c1cn(C)nc1-2`, the Ki was above 40 µM.

In the case of `CCCCCCC(C)(C)c1cc(O)c2c(c1)OC(C)(C)c1cnn(-c3ccc(Cl)cc3Cl)c1-2`, the inhibition constant Ki was above 40 µM.

As for `CCCCCCC(C)(C)c1cc(O)c2c(c1)OC(C)(C)c1cn(CC)nc1-2`, the Ki is above 40 µM.

These data come from BindingDB's records for doi:10.1021/acs.jmedchem.6b00397 (IQM-CSIC, 2016).
